Source: patent US10874752B2, “MIBG analogs and uses thereof” (Board of Regents of The University of Nebraska, priority 2015, dated 2020)

What was measured:
[1] = Stability in mouse serum (HPLC of extracts); assay type: in vitro ADME; settings: up to 24 h, ambient temperature or 37° C.
Procedure: (§1) Incubations: into a solution (1980 μL) of serum (mouse, human), buffer or cells media, a sample of (17a), (185-390 kBq) in 15-20 μL of 25% EtOH/PB (100 mM, pH 6.1) was added; the resulting mixture was briefly vortexed and kept (up to 24 h) at ambient temperature or inside the incubator (37° C./˜5% CO2). At each time point, a volume of 1 mL was withdrawn, the extract of sample prepared and analyzed by HPLC.
(§2) Preparation of extracts: a sample (1 mL) from each incubated mixture with compound (17a) was treated with MeCN (1 mL), vortexed, and centrifuged (2,000 rpm, 15 min). The supernatant was removed and the radioactivity measured. Aliquots of supernatant (250-500 μL) were acidified to pH˜6 with 0.05 N TFA (2-8 μL). The excess of MeCN was evaporated with a stream of nitrogen and water (100 μL) added. A mixture was passed through a 0.2μ filter and each sample (˜100 μL, 95-185 kBq) injected on HPLC system.
(§3) HPLC analysis of extracts: continued on Columbus C18 100 Å (5 μm, 4.6×250 mm) column; eluted at 0.8 mL/min with a linear gradient of MeCN from 0 to 95% over 60 min and 95% MeCN was kept for a period of further 20 min, detecting the radioactivity (Bioscan NaI(T)). Both solvents contained 0.07% TFA (v/v).

[2] = Stability in human serum (HPLC of extracts); assay type: in vitro ADME; settings: up to 24 h, ambient temperature or 37° C.
Procedure: as §1, §2, §3

[3] = cited from earlier work
SK-N-SH NB cells = experiment: Subcellular distribution of 125I in SK-N-SH NB cells; assay type: cell-based, human; settings: SK-N-SH NB cells exposed at 80 kBq/mL for 1 h, harvested 24 h later
Excerpt: (§4) Conjugate 17b was used for further testing. […] All drugs were designed so that they produce either 5-radioiodo-2′-deoxyuridine [RIUdR] or its 5′-monophosphate. Both metabolites can participate in the DNA synthesis allowing deposits of high LET radiation directly within the DNA structure. RIUdR, incorporated into the DNA of cancer cells in place of thymidine, is retained there for the life of the cell. It is extraordinarily lethal when labeled with Auger-electron-emitting radioiodines, which produce a cascade of monoenergetic electrons known as conversion and Auger electrons. These electrons deposit their energy within a tiny sphere around the decaying atom, i.e., the effective distance of Auger electrons is less than the diameter of the cancer cell nucleus. As a result, their cytotoxicity is dependent on the intranuclear localization, i.e., within the DNA or immediate vicinity of the DNA. Radiotoxicity of several reagents was tested in SK-N-SH cells. Tested drugs eradicate NB cells more efficiently than MIBG.

human NB SK-N-SH cells = experiment: Radiotoxicity, clonogenic assay in SK-N-SH cells; assay type: cell-based
Excerpt: as §4
FIG. 14A-C show results of a pilot radiotoxicity study comparing the reproductive integrity of colonies of human NB SK-N-SH cells treated with conjugate 17b (radiolabeled with ^125I) and ^125IMIBG at 37 kBq/mL, two weeks after treatment.

SK-N-SH cells = experiment: Uptake by SK-N-SH cells competed by MIBG; assay type: cell-based, human; settings: competition with MIBG (FIG. 16)

N=C(N)NCCC(=O)OC[C@H]1O[C@@H](n2cc([125I])c(=O)[nH]c2=O)C[C@@H]1O [17a, 5-[^125I]-Iodo-5′-O-propionylguanidino-2′-deoxyuridine]
stability in mouse serum [1]: limited
stability in human serum [2]: limited

N=C(N)NCc1cccc([131I])c1 [^131IMIBG, ^131I-metaiodobenzylguanidine]
long-term survivors developing thyroid disorders ([3]; long-term survivors treated with 131IMIBG): over 80%
maximum tolerated dose ([3]; patients with neuroblastoma): > 600 MBq/kg

N=C(N)NCCCCCC(=O)OC[C@H]1O[C@@H](n2cc([125I])c(=O)[nH]c2=O)C[C@@H]1O [conjugate 17b, 5-[^125I]-Iodo-5′-O-hexanoylguanidino-2′-deoxyuridine]
subcellular distribution of 125I (SK-N-SH NB cells): All ^125I is associated with the DNA fraction
retention within the cell (human NB SK-N-SH cells): trapped within the cell
radiotoxicity (reproductive integrity of colonies) (human NB SK-N-SH cells; 37 kBq/mL, two weeks after treatment, compared with 125IMIBG): far more radiotoxic
cells receiving a lethal dose of radiation, clonogenic assay (human NB SK-N-SH cells; 1 h with the drug, compared with 125IMIBG): more cells receive a lethal dose of radiation
uptake by SK-N-SH cells (SK-N-SH cells): competed by MIBG
